Experimental findings from US7420056B2, “Substituted bicyclic imidazo-3-ylamine compounds” (Gruenenthal GmbH, priority 2004, dated 2008) are described below.

The structures appear in SMILES notation. Like-named read-outs stand apart in the source and are kept apart here.

A word on the ED50: it is the dose that gives a 50% effect, or the effect in half of the subjects. One may read the IC50 as the concentration at which inhibition is half-maximal.

For one experiment, the system named is Rat. The experiment can be described thus: Formaldehyde test (rat), phase 2. The format is in vivo.
Another experiment relates to Mouse. The experiment in a line: Formaldehyde test in mice. The class given is in vivo.
A further experiment addresses mGluR5 receptor (Sus scrofa, UniProt I3LUI7). The experiment can be described thus: Affinity for the mGluR5 receptor: inhibition of 3[H]-MPEP binding in pig brain homogenate. The note with it: 3[H]-MPEP binding. The gist of the method: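 Pig brain membranes (450 μg protein; hemispheres without medulla, cerebellum and pons) in 30 mM Hepes pH 8.0 were incubated 60 min at room temperature with 5 nM [3H]-MPEP and compound at 10 μM. Bound radioactivity was filtered and counted. Nonspecific binding was defined with 10 μM MPEP.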

Experiment [1] deals with neuropathic pain in rats (cold allodynia). The experiment can be described thus: Neuropathic pain in rats, Bennett model (chronic constriction injury), cold allodynia. The class given is in vivo. The conditions noted are these: rat, p.o., in words. An excerpt: 2. Neuropathic Pain in Rats Efficacy against neuropathic pain was investigated in the Bennett model (chronic constriction injury; Bennett and Xie, 1988, Pain 33: 87-107). The corresponding parts of the literature are hereby deemed to be part of the present disclosure. Sprague-Dawley rats weighing 140-160 g are provided under Nembutal anaesthesia with four loose ligatures of the right ischial nerve. On the paw innervated by the damaged nerve, the animals develop hypersensitivity which, after one week's convalescence, is quantified over a period of approx. four weeks by means of a cold metal plate at 4° C. (cold allodynia). The animals are observed on this plate for a period of 2 min. and the number of withdrawal responses by the damaged paw is measured. […] The significance of an antiallodynic action is determined with reference to the AUC values by means of a paired T-test (*0.05≧p>0.01; **0.01≧p>0.001; ***p≦0.001; Armitage and Berry, 1987, Stat. Methods in Medical Research, London: Blackwell Scientific Publications).

For the next experiment, the system named is male Sprague-Dawley rats. The experiment in a line: Elevated plus maze (EPM) model, anxiolytic effect. The format is in vivo. The conditions noted are these: rat, 60 min after p.o. administration, in words. As to the method:
3. “Elevated Plus Maze” Model
Compounds are tested for a possible anxiolytic effect in the “elevated plus maze” (EPM) model. The tests are carried out on male Sprague-Dawley rats (200-250 g) using 2 “elevated plus mazes” (Med Associates) with electronically controlled infrared photobeams for determining the location of the animals in the maze. Each maze has 2 open and 2 closed arms and a central platform. The edges of the open arms are delimited by narrow strips. The entire maze is mounted on a metal stand.
At the beginning of a 5 minute test, each animal is individually placed on the central platform with its head in the direction of a closed arm.
The following parameters are determined or calculated and evaluated:
the number and percentage of entries into the open and closed arms,
and the percentage of time spent in the open and closed arms and on the central platform.
The data are analysed by means of single factor ANOVA (comparison of treatment groups vs. vehicle group). The significance level is set at p<0.05. All groups have a size of N=10.
The test is also described in Hogg, S. (1996) A review of the validity and variability of the elevated plus-maze as an animal model of anxiety. Pharmacol. Biochem. Behav. 54, 21-30 and Rodgers, R. J., Cole, J. C. (1994) The elevated plus-maze: pharmacology, methodology and ethology, in: Cooper, S. J., Hendrie, C. […]

Where [2] appears, read: ip, read-out: ED50 value, Rat i.p.
[3] abbreviates: po, read-out: ED50 value, Rat p.o.
[4] abbreviates: ip, read-out: ED50 value, Mouse i.p.

Chain of mGluR5 receptor (I3LUI7 19-1212): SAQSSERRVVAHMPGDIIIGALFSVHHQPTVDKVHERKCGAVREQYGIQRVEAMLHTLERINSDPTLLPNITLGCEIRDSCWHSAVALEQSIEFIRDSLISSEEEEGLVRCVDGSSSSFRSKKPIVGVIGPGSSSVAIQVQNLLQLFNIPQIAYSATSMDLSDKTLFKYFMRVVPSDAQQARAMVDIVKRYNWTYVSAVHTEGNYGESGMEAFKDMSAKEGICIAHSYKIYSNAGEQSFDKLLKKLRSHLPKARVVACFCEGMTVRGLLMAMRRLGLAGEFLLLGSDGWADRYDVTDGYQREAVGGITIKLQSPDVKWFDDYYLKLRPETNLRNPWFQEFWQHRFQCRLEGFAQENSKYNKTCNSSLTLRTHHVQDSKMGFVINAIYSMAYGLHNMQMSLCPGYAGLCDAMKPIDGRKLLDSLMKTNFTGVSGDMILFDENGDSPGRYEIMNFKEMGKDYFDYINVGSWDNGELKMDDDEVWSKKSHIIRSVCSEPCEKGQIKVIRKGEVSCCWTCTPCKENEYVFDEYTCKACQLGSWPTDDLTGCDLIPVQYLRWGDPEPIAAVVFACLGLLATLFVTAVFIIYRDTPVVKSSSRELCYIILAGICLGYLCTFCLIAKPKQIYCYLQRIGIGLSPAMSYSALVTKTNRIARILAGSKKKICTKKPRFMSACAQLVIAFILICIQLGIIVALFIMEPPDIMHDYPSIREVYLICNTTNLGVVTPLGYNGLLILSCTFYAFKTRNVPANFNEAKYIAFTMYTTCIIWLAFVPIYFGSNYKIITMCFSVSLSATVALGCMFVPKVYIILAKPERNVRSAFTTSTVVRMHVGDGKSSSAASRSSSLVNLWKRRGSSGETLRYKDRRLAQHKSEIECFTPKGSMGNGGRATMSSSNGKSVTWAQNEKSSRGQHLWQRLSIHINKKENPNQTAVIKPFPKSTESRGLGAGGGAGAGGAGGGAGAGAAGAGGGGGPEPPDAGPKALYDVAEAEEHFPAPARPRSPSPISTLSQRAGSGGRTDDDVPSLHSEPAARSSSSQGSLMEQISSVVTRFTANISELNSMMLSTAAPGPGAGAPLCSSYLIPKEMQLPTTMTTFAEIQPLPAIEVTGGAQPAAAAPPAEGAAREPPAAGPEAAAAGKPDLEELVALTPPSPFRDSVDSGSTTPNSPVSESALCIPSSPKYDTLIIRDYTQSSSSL

With `CC(C)(C)Nc1c(-c2ccc(C#Cc3ccccn3)s2)nc2cnccn12.Cl` [Example 91, N-tert-butyl-2-(5-(pyridin-2-ylethynyl)thiophen-2-yl)imidazo[1,2-a]pyrazin-3-amine hydrochloride], the 50% effective dose (ED50) was 4.7 mg/kg in the experiment on Rat (setting [2]); 7.3 mg/kg with Rat (setting [3]); 1.2 mg/kg in the experiment with Mouse (setting [4]); 2.3 mg/kg with Mouse (po, read-out: ED50 value, Mouse p.o.). The molecule also registered a concentration for half-maximal inhibition (IC50) at mGluR5 receptor of 5.4 nM.
`CC(C)(C)Nc1c(-c2ccc(C#Cc3ccccn3)cc2)nc2cnccn12` [Example 116, N-tert-butyl-2-(4-(pyridin-2-ylethynyl)phenyl)imidazo[1,2-a]pyrazin-3-amine]: in the experiment with Mouse (setting [4]), the ED50 was determined as 15.2 mg/kg. This molecule showed a 50% inhibitory concentration (IC50) at mGluR5 receptor of 76 nM.
Consider `CC(C)(C)Nc1c(-c2ccc(C#Cc3ccncc3)s2)nc2cnccn12.Cl` [Example 127, N-tert-butyl-2-(5-(pyridin-4-ylethynyl)thiophen-2-yl)imidazo[1,2-a]pyrazin-3-amine hydrochloride], for which the 50% effective dose (ED50) turned out to be 2.2 mg/kg in the experiment on Rat (setting [2]), 5.9 mg/kg in the experiment with Rat (setting [3]) and 7.7 mg/kg in the experiment on Mouse (setting [4]). Further, the IC50 on mGluR5 receptor turned out to be 8.4 nM.
As to `CC(C)(C)Nc1c(-c2ccc(C#Cc3ccccn3)s2)nc2ccccn12.Cl` [Example 192, N-tert-butyl-2-(5-(pyridin-2-ylethynyl)thiophen-2-yl)imidazo[1,2-a]pyridin-3-amine hydrochloride], the antiallodynic action result in experiment [1] was “pronounced, long-lasting antiallodynic action”. Also, in the experiment with male Sprague-Dawley rats, the anxiolytic effect result is on record as “dose-dependent anxiolytic effect”.
